Experimental data reported in US20260183303A1, “PDK1 REGULATORY COMPOUND AND COMPOSITION CONTAINING THE SAME” (PROVIBIO CO., LTD., priority 2024, published 2026).

What was measured:
[1] = system: Human B Lymphocyte cell line, SU-DHL-8; experiment: Relative cell viability (CCK-8), SU-DHL-8; format: cell-based; settings: 48 hours, untreated cells (DMSO) = 100%
Method: Human-derived B lymphoma cell line SU-DHL-8 (Cat. #CRL-2961) purchased from ATCC was cultured in RPMI-1640 medium containing […], 100 U/mL penicillin, and 100 μg/mL streptomycin.
The cell culture medium was then harvested, centrifuged at 1,300 rpm for 5 minutes, and the supernatant was removed. The cells were resuspended in the same medium and dispensed into a 96-well plate (Costar 96-well cell culture plate, Corning) at 90 μL per well, resulting in the conditions specified in Table 5.
Then, 10 μL of CCK-8 was added to each well, and the plates were incubated again at 37° C. in a 5% CO2 incubator for 4 hours.
In other words, when the survival rate of untreated cells (DMSO) is set at 100%, the relative cell survival rate in each group treated with the drug at different concentrations is indicated.

[2] = system: T cells isolated from mouse spleens; experiment: T cell proliferation inhibition (CFSE flow cytometry, anti-CD3/anti-CD28 activation); format: cell-based, C57BL/6 mice; settings: mouse spleen T cells, CD3/CD28 activated, cultured three days
Method: To verify the T cell proliferation inhibitory effect of the compounds according to the present invention, the following experiment was performed based on flow cytometry analysis using carboxyfluorescein diacetate succinimidyl ester (CFSE), a fluorescent dye that binds to intracellular molecules via covalent bonds.
Spleens were extracted from 7-week-old C57BL/6 mice, ground, and then separated into single cells using a strainer ([…], SPL). Red blood cells were removed using ACK (Ammonium-Chloride-Potassium) lysis buffer to isolate white blood cells.
Finally, using a MACS Magnetic Stand and LS column, T cells were isolated from the spleen.
The T cells isolated from the spleen were resuspended in 1 mL of free medium (RPMI-1640+200 U/mL penicillin+200 μg/mL streptomycin), and 0.3 μL of CFSE (10 mM) was added. The mixture was incubated at 37° C. for 5 minutes.
Free medium (10 mL) was added to stop the reaction, and the cells were centrifuged to obtain the cell pellet.
RPMI 1640 medium containing 10% FBS, 100 U/mL penicillin, 100 μg/mL streptomycin, and resuspended the cells. The cells were then seeded into a 96-well plate at a density of 2×10^5 cells per well and activated with CD3 and CD28 antibodies ([…]) to activate T cells.
The compound diluted in DMSO was added at concentrations of 10 nM, 100 nM, 1 μM, […], 30 μM, and 50 µM, with three wells per concentration, and cultured at 37° C. and 5% CO2 for three days. The cells were then analyzed using a FACS Canto instrument.
The proliferation inhibition rate (%) was calculated using the following formula: […]

| SMILES | Relative cell viability (%) ([1]; SU-DHL-8, 1 μM) | Relative cell viability (%) ([1]; SU-DHL-8, 10 μM) | Relative cell viability (%) ([1]; SU-DHL-8, 30 μM) | Relative cell viability (%) ([1]; SU-DHL-8, 50 μM) | Proliferation inhibition rate (%) ([2]; 10 nM) | Proliferation inhibition rate (%) ([2]; 100 nM) | Proliferation inhibition rate (%) ([2]; 1 μM) | Proliferation inhibition rate (%) ([2]; 10 μM) | Proliferation inhibition rate (%) ([2]; 30 μM) | Proliferation inhibition rate (%) ([2]; 50 μM) | Proliferation inhibition rate (%) ([2]; 10 nM, listed as K-PB-48, 0.01 µM) |
| --- | --- | --- | --- | --- | --- | --- | --- | --- | --- | --- | --- |
| CN(C)C1CCN(CCCCCCCCCCCCNC(=O)c2cccnc2N)C1 (stereo not drawn) [Compound 19, 2-Amino-N-(12-(3-(dimethylamino)pyrrolidin-1-yl)dodecyl) nicotinamide] | 8.51% | 7.51% | 5.98% | 5.08% | −14.40% | 100.00% | 100.00% | 100.00% | 100.00% | 100.00% |  |
| CC1CN(CCCCCCCCCCCCNC(=O)c2cccnc2N)CC(C)O1 (stereo not drawn) [Compound 21, 2-Amino-N-(12-(2,6-dimethylmorpholino)dodecyl) nicotinamide] |  |  | 3.70% |  |  | 100.00% | 100.00% | 100.00% | 100.00% | 100.00% |  |
| CC1CCN(CCCCCCCCCCCCNC(=O)c2cccnc2N)C1 (stereo not drawn) [Compound 24, 2-Amino-N-(12-(3-methylpyrrolidin-1-yl)dodecyl) nicotinamide] |  |  | 0.62% |  |  | 100.00% | 100.00% | 100.00% | 100.00% | 100.00% |  |
| Nc1ncccc1C(=O)NCCCCCCCCCCCCN1CCS(=O)(=O)CC1 [Compound 25, 2-Amino-N-(12-(1,1-dioxidothiomorpholino)dodecyl) nicotinamide] |  |  | 0.11% | 0.95% |  |  | 100.00% | 100.00% | 100.00% | 100.00% |  |
| Nc1ncccc1C(=O)NCCCCCCCCCCCCN1CCC(F)C1 (stereo not drawn) [Compound 26, 2-Amino-N-(12-(3-fluoropyrrolidin-1-yl)dodecyl) nicotinamide] | 1.70% |  | 0.05% |  |  | 100.00% | 100.00% | 100.00% | 100.00% | 100.00% |  |
| Nc1ncccc1C(=O)NCCCCCCCCCCCCN1CCN(Cc2ccc(F)cc2)CC1 [Compound 27, 2-Amino-N-(12-(4-(4-fluorobenzyl)piperazin-1-yl)dodecyl) nicotinamide] | 6.24% | 4.97% | 2.03% | 0.56% | 2.27% | 83.33% | 100.00% | 100.00% | 100.00% | 100.00% |  |
| COc1ccc(CN2CCN(CCCCCCCCCCCCNC(=O)c3cccnc3N)CC2)cc1 [Compound 28, 2-Amino-N-(12-(4-(4-methoxybenzyl)piperazin-1-yl)dodecyl) nicotinamide] | 5.46% | 2.82% | 0.33% |  | −0.27% | 100.00% | 100.00% | 100.00% | 100.00% | 100.00% |  |
| CN(C)CCN1CCN(CCCCCCCCCCCCNC(=O)c2cccnc2N)CC1 [Compound 33, 2-Amino-N-(12-(4-(2-(dimethylamino)ethyl)piperazin-1-yl)dodecyl) nicotinamide] |  | 4.32% | 3.35% | 2.66% | −36.05% | 100.00% | 100.00% | 100.00% | 100.00% | 100.00% |  |
| CC1CNCCN1CCCCCCCCCCCCNC(=O)c1cccnc1N (stereo not drawn) [Compound 35, 2-Amino-N-(12-(2-methylpiperazin-1-yl)dodecyl) nicotinamide] |  | 0.64% | 0.42% |  |  | 100.00% | 100.00% | 100.00% | 100.00% | 100.00% |  |
| Nc1ncccc1C(=O)NCCCCCCCCCCCCN1CCC(Oc2ccncc2)CC1 [Compound 38, 2-Amino-N-(12-(4-(pyridin-4-yloxy)piperidin-1-yl)dodecyl) nicotinamide] |  | 3.30% |  |  |  | 100.00% | 100.00% | 100.00% | 100.00% | 100.00% |  |
| CN1CCN(CCCCCCCCCCCCNC(=O)c2cccnc2F)CC1 [Compound 121, 2-fluoro-N-(12-(4-methylpiperazin-1-yl)dodecyl) nicotinamide] |  |  |  |  | 0.00% | 0.00% | 0.00% | 30.00% | 100.00% | 100.00% |  |
| Nc1ncccc1C(=O)NCCCCCCCCCCCCN1CC(F)(F)C1 [Compound 122, 2-Amino-N-(12-(3,3-difluoroazetidin-1-yl)dodecyl) nicotinamide] |  |  |  |  | 0.00% | 0.00% | 80.00% | 100.00% | 100.00% | 100.00% |  |
| COC1CCN(CCCCCCCCCCCCNC(=O)c2cccnc2N)C1 (stereo not drawn) [Compound 126, 2-amino-N-(12-(3-methoxypyrrolidin-1-yl)dodecyl) nicotinamide] |  |  |  |  |  | 100.00% | 100.00% | 100.00% | 100.00% | 100.00% | 0.00% |
| Nc1ncccc1C(=O)NCCCCCCCCCCCCN1CCOC1=O [Compound 127, 2-amino-N-(12-(2-oxooxazolidin-3-yl)dodecyl) nicotinamide] |  |  |  |  |  |  |  | 100.00% | 100.00% | 100.00% |  |
| Nc1ncccc1C(=O)NCCCCCCCCCCCCNC1CCOC1 (stereo not drawn) [Compound 128, 2-amino-N-(12-((tetrahydrofuran-3-yl)amino)dodecyl) nicotinamide] |  |  |  |  |  | 100.00% | 100.00% | 100.00% | 100.00% | 100.00% |  |
| Nc1ncccc1C(=O)NCCCCCCCCCCCCN1CC=CC1 [Compound 129, 2-amino-N-(12-(2,5-dihydro-1H-pyrrol-1-yl)dodecyl) nicotinamide] |  |  |  |  | 0.00% | 90.00% | 100.00% | 100.00% | 100.00% | 100.00% |  |
